Data published in patent US20240199702A1, “CELL-PERMEABLE CYCLIC PEPTIDES AND USES THEREOF” (Unnatural Products Inc., priority 2021, published 2024).
Where a SMILES comes first, the peptide text is derived from it. [ ]: non-standard residue; d: D form. Ala(thiazol-5-yl) = N[C@@H](Cc1cncs1)C(=O)O; Phe(4-Cl) = N[C@@H](Cc1ccc(Cl)cc1)C(=O)O; Phe(4-F) = N[C@@H](Cc1ccc(F)cc1)C(=O)O; NMeF = CN[C@@H](Cc1ccccc1)C(=O)O; NMeNva = CCC[C@H](NC)C(=O)O; NMeV = CN[C@H](C(=O)O)C(C)C; hSer = N[C@@H](CCO)C(=O)O; NMeA = CN[C@@H](C)C(=O)O; dNMeA = CN[C@H](C)C(=O)O

How the values were obtained:
[1] = test system: WaGa cells; test: Cellular Fluorescence Assay 3 (CellTiter-Glo, 72 hours); type: cell-based
Procedure: Cellular Fluorescence Assay 3
(§1) WaGa cells were grown in suspension in T75 flasks in RPMI medium with 10% fetal bovine serum (FBS) at 37° C. with 5% CO2. 40 μL of WaGa cells were plated into columns 1-22 of white, flat bottom, 384 well plates at a density of 1,000 cells per well in RPMI with 10% FBS. Columns 23 and 24 were filled with 40 μL of media as a positive control. 100 nL of compounds dissolved in DMSO were pin transferred into columns 3-22 of the 384 well plate. Columns 1 and 2 served as negative control wells. Plates were incubated for 72 hours at 37° C. with 5% CO2. After incubation, the cells were given 10 μL of CellTiter-Glo® (Promega®). Luminescence was read on a Molecular Devices SpectraMax i3x plate reader.

[2] = target: T1, Human MDM4 (HDM4) 1-114 (Homo sapiens, UniProt O15151); test: Fluorescence Polarization Assay 2 (MDM4/p53 peptide); type: binding; settings: FAM-labeled p53 peptide, 60 minutes
T1 construct: Human MDM4 (HDM4) 1-114
T1 sequence (O15151 1-114): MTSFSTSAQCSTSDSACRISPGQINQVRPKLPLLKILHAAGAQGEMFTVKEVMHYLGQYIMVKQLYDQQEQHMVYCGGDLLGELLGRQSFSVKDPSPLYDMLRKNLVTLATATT
Procedure: Fluorescence Polarization Assay 2
(§2) Human MDM4 (HDM4) 1-114 (20 μL) and FAM-labeled GGTSFAEYWNLLSP —NH2, 20 nM and 5 nM respectively in 10 mM Tris, 50 mM NaCl, 0.01% Tween20, and 1 mM DTT at pH 7.4 were dispensed into an opaque, black, 384 well plate. Compounds dissolved in DMSO were pin transferred (−100-200 nL) to the 384 well plate containing the MDM4/p53 solution. After incubation for 60 minutes, the fluorescence polarization was read on a Molecular Devices SpectraMax plate reader equipped with a Fluorescein FP cartridge. In addition to probe alone (positive control) and probe/MDM4 (negative control), a titration of linear p53(18-26) was included on every plate as an additional control. IC50 values were fit using either Prism or Collaborative Drug Discovery.

[3] = test system: MV4-11 cells; test: Cellular Fluorescence Assay 2 (CellTiter-Glo, 72 hours); type: cell-based
Procedure: Cellular Fluorescence Assay 2
as §1, with “MV4-11” for “WaGa”

[4] = test system: MKL-1 cells; test: Cellular Fluorescence Assay 4 (CellTiter-Glo, 72 hours); type: cell-based
Procedure: Cellular Fluorescence Assay 4
as §1, with “MKL-1” for “WaGa”, “MKL-1” for “of WaGa”, “reader. In some embodiments, the cyclic peptide described herein is a cyclic peptide depicted in Table 1: […]” for “reader.”

[5] = target: T2, Human MDM2 (HDM2) 1-116 (Homo sapiens, UniProt Q00987); test: Fluorescence Polarization Assay 1 (MDM2/p53 peptide); type: binding; settings: FAM-labeled p53 peptide, 60 minutes
T2 construct: Human MDM2 (HDM2) 1-116
T2 sequence (Q00987 1-116): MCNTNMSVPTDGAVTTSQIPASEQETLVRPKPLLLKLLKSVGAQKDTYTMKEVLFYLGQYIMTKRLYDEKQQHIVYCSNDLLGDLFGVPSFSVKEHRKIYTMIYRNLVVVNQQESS
Procedure: Fluorescence Polarization Assay 1
as §2, with “MDM2 (HDM2) 1-116” for “MDM4 (HDM4) 1-114”, “GGTSFAEYWNLLSP-NH2, 10” for “GGTSFAEYWNLLSP —NH2, 20”, “(˜100-200” for “(−100-200”, “MDM2/p53” for “MDM4/p53”, “probe/MDM2” for “probe/MDM4”

[6] = test system: MOLM-13 cells; test: Cellular Fluorescence Assay 1 (CellTiter-Glo, 72 hours); type: cell-based
Procedure: Cellular Fluorescence Assay 1
as §1, with “MOLM-13” for “WaGa”, “ofMOLM-13” for “of WaGa”

IC50 [2]: ≥ 100 nM
IC50 [3]: 100 to 150 nM
IC50 [5]: < 25 nM
IC50 [6]: ≥ 150 nM
Compound: CCC[C@H]1C(=O)N[C@@H](Cc2ccc(F)cc2)C(=O)N(C)[C@@H](C(C)C)C(=O)N[C@@H](Cc2ccc(Cl)cc2)C(=O)N(C)[C@@H](Cc2ccccc2)C(=O)N2CCC[C@@H]2C(=O)N[C@@H](CCOC)C(=O)N(C)[C@@H](C)C(=O)N[C@@H](Cc2cncs2)C(=O)N(C)[C@H](C)C(=O)N1C [compound 28] (cyclo([NMeA][Ala(thiazol-5-yl)][dNMeA][NMeNva][Phe(4-F)][NMeV][Phe(4-Cl)][NMeF][dP][hSer](Me)))
IC50 [1]: ≥ 150 nM
IC50 [4]: 1000 to 2000 nM
